The values that follow come from US20230257710A1, “NATURAL KILLER CELL HAVING CONTROLLED ONCOLOGY-RELEATED GENE EXPRESSION, AND USE THEREOF” (SUNGKWANG MEDICAL FOUNDATION, priority 2020, published 2023).

This data set relates to A2780cis xenograft. In kind it is in vivo, NSG mice. Here is the method:
The efficacy was evaluated by confirming the growth inhibitory effect of natural killer cells (pNK) cultured by the culture method according to one aspect as an immuno-anticancer agent. An A2780cis xenograft mouse model was prepared by subcutaneously injecting the […] ovarian cancer cell line A2780cis into the fat pad of 7-week-old NSG mice in an amount of 2×10^6 (cells). After ovarian cancer cell lines were injected, mice with tumors were randomly grouped on day 3: a group treated with intraperitoneal injection of cisplatin at 1 mg/kg, once/week; a group treated with intravenous injected of natural killer cells according to one aspect in the number of 1×10^7 (cells), 2 times/week; and a control group treated with the injection of PBS (FIG. 8). After injection of the ovarian cancer cell line, tumor size and body weight were measured daily.

For the compound `N.N.[Cl][Pt][Cl]` [cisplatin], for the setting “compared to the control group (PBS), A2780cis xenograft NSG mice”, the “cancer cell growth inhibitory effect” value is “about 55%”. Moreover, the “change in body weight” value (mouse, in vivo) is “no significant change in body weight”.
